# Source: paper PMC3185571 (Viruses, 2010)
# Read-outs that look alike come from different tables or passages of the source.
# Tests used:
# [1] = target: neuraminidase of A/Texas/12/2007, A (H3N2) Seasonal, E119V (Influenza A virus, UniProt D1FVK3, I119V); experiment: biochemical
# [2] = target: neuraminidase of A/Texas/48/2009, H1N1 Pandemic, H275Y (Influenza A virus, UniProt C6KP13, H275Y); assay type: biochemical, 2009 pandemic H1N1 influenza virus
# [3] = target: neuraminidase of B/Memphis/20/1996, B Seasonal, R152K (Influenza B virus, UniProt R4KWM8, R150K); assay type: biochemical
# [4] = target: neuraminidase of A/Washington/10/2008, A (H1N1) Seasonal, WT (Influenza A virus, UniProt G3LYQ1); assay type: biochemical
# [5] = target: neuraminidase of A/California/07/2009, H1N1 Pandemic, WT (Influenza A virus (A/California/07/2009(H1N1)), UniProt C7FH46); assay type: biochemical, 2009 pandemic H1N1 influenza virus
# [6] = target: neuraminidase of 2009 pandemic H1N1 H275Y variant virus isolates (Influenza A virus, UniProt C3W5S3, H275Y); assay type: biochemical, 2009 pandemic H1N1 influenza virus
# [7] = target: neuraminidase of A/Florida/21/2008, A (H1N1) Seasonal, H275Y (Influenza A virus, UniProt G3LYQ1, H275Y); assay type: biochemical
# [8] = target: neuraminidase of A/Thailand/1035/2008 (H1N1), H275Y and D151D/G (Influenza A virus, UniProt C7FPR4); assay type: biochemical
# [9] = target: neuraminidase of B/Memphis/20/1996, B Seasonal, WT (Influenza B virus, UniProt C7FPS7); assay type: biochemical
# [10] = target: neuraminidase of seasonal influenza A(H1N1) H275Y variant virus isolates (Influenza A virus, UniProt A8C8J7, H275Y); assay type: biochemical
# [11] = target: neuraminidase of A/Ontario/RV0442/2009, A(H3N2), D151V and V50M (Influenza A virus, UniProt X2GPU4, D151V/V50M); assay type: biochemical
# [12] = target: neuraminidase of A/Washington/01/2007, A (H3N2) Seasonal, WT (Influenza A virus, UniProt A7UPN3); experiment: biochemical
# [13] = target: neuraminidase of B/Texas/38/2008, D197E (Influenza B virus, UniProt C7F996); experiment: biochemical
compound,measurement,setting,value
"CCC(CC)[C@H](NC(C)=O)[C@@H]1[C@H](O)[C@@H](C(=O)O)C[C@H]1N=C(N)N [Peramivir, peramivir]",Fold Difference (IC50 of mutant/IC50 of wildtype virus),[1],0.14±0.02 (1)
same,IC50,[1]; read-out: Mean IC50 ± SD,0.00014 µM
same,Fold Difference (IC50 of mutant/IC50 of wildtype virus),[2],10.06±0.01 (164)
same,IC50,[2]; read-out: Mean IC50 ± SD,0.0101 µM
same,Fold Difference (IC50 of mutant/IC50 of wildtype virus),[3],52.80±3.51 (176)
same,IC50,[3]; read-out: Mean IC50 ± SD,0.0528 µM
same,Fold Difference (IC50 of mutant/IC50 of wildtype virus),[4],0.09±0.02 (1)
same,Fold Difference (IC50 of mutant/IC50 of wildtype virus),[5],0.06±0.02 (1)
same,IC50,[6]; read-out: IC50 Mean (±SD),0.0104 ± 0.00137 µM
same,IC50,[6]; read-out: IC50 Median,0.0103 µM
same,IC50,[6]; read-out: IC50 Range,0.0081 to 0.0129 µM
same,Fold Difference (IC50 of mutant/IC50 of wildtype virus),[7],11.27±1.36 (134)
same,IC50,[7]; read-out: Mean IC50 ± SD,0.0113 µM
same,IC50,[8]; read-out: IC50,0.295 µM
same,Fold Difference (IC50 of mutant/IC50 of wildtype virus),[9],0.31±0.06 (1)
same,"fold, mean IC50 among H275Y variants over H275 wildtype viruses",[10],~300 fold
same,IC50,[10]; read-out: IC50 Mean (±SD),0.0306 ± 0.0661 µM
same,IC50,[10]; read-out: IC50 Median,0.0129 µM
same,IC50,[10]; read-out: IC50 Range,0.00246 to 0.511 µM
same,IC50,[11],0.00748 µM
same,Fold Difference (IC50 of mutant/IC50 of wildtype virus),[12],0.12±0.02 (1)
"CC(=O)N[C@H]1[C@H]([C@H](O)[C@H](O)CO)OC(C(=O)O)=C[C@@H]1N=C(N)N [Zanamivir, zanamivir]",IC50,[1],0.00051 µM
same,IC50,[8],0.0206 µM
same,IC50,[13],0.0103 µM
